Values of other authors, collected in patent publication US20240299268A1, “A COMPOSITION FOR CARING FOR KERATIN MATERIALS” (L'OREAL, priority 2021, published 2024).
Where two headings read alike, the source gives them in different places.

COc1cc(/C=C/C(=O)O)ccc1O [Ferulic acid, 4-Hydroxy-3-methoxycinnamic acid]
time until decarboxylation (loss in stability, unpleasant odor) when contacting with water (content of ferulic acid no less than 1 wt. %): 30 days | time until decarboxylation (loss in stability, unpleasant odor) when contacting with water (content of ferulic acid no less than 1.5 wt. %): 15 days | time until decarboxylation (loss in stability, unpleasant odor) when contacting with water (content of ferulic acid no less than 1.9 wt. %): 7 days
